The source of these data is ChEMBL document CHEMBL1140268, “Novel and potent cyclic cyanamide-based cathepsin K inhibitors” (Bioorg Med Chem Lett, 2005).

The structures appear in SMILES notation.

The target of test [1] is T1, Pro-cathepsin H (Homo sapiens, UniProt P09668).
T1 sequence (P09668 whole entry): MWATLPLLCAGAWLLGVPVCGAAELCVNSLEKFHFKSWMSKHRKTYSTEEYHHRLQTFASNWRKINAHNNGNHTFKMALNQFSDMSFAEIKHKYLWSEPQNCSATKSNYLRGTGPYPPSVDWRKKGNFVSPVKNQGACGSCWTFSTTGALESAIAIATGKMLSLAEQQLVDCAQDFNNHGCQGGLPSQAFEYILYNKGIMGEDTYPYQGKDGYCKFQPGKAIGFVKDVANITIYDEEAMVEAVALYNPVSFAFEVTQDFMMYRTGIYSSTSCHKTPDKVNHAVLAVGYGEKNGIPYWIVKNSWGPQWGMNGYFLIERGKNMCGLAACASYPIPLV
The experiment in a line: Inhibitory concentration against human cathepsin H using 50 uM L-Arg-beta-naphthalamide.

The target in test [2] is Cathepsin B (Homo sapiens, UniProt P07858). The experiment in a line: Inhibitory concentration against human cathepsin B using 10 uM Cbz-Phe-Arg-AMC.
The target in test [3] is T2, Cathepsin K (Homo sapiens, UniProt P43235).
T2 sequence (P43235 whole entry): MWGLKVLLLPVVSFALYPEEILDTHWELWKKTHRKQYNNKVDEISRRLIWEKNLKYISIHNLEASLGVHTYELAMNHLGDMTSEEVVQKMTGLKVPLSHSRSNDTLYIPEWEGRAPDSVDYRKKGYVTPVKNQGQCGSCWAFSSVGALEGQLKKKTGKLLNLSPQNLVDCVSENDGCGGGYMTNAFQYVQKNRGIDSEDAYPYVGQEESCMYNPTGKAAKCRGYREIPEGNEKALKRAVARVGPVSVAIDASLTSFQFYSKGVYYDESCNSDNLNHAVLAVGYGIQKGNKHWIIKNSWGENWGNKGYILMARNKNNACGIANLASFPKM
Briefly: Inhibitory concentration against human cathepsin K using 10 uM Cbz-Phe-Arg-AMC.

The target in test [4] is Procathepsin L (Homo sapiens, UniProt P07711). Briefly: Inhibitory concentration against human cathepsin L using 5 uM Cbz-Phe-Arg-AMC.
Sequence of Procathepsin L (P07711 whole entry): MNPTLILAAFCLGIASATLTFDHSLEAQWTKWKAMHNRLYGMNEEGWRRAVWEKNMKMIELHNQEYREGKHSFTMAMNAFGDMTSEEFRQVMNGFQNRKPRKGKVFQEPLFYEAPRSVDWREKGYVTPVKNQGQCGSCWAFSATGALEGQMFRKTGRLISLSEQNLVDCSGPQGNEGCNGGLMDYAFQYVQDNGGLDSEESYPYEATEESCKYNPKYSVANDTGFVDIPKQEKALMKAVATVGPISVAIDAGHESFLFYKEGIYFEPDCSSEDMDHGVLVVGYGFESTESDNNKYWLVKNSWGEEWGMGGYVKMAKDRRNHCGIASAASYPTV

In general, IC50 refers to the point on the concentration scale where inhibition reaches its midpoint. A higher IC50 goes with a need for much substance. Take `C[C@@H](CC1CCCCC1)OC(=O)C1CCCN1C#N` (stereo not given in full): the IC50 is 580 nM in test [1], 310 nM in test [2], 1.8 nM in test [3] and 130 nM in test [4].
In the case of `CC(C)(C)NC(=O)[C@H]1CCCN1C#N`, the IC50 in test [3] is 8100 nM.
Turning to `CC[C@@H](CC1CCCCC1)OC(=O)N1CCC(NC#N)C1` (stereo not given in full), in test [3], the 50% inhibitory concentration (IC50) was 200 nM.
Same read-out and setting: the figure for `CC(C)(C)OC(=O)[C@H]1CCCN1C#N` is 300 nM.
On the same count and under the same terms, next, `COC(=O)[C@@H]1CN(C#N)C[C@H]1c1ccc(OC)c(OC2CCCC2)c1`: 430 nM.
For `C[C@@H](CC1CCCCC1)OC(=O)N[C@H]1CCN(C#N)C1`, the IC50 in test [1] was 8300 nM; in test [2], 680 nM; in test [3], 12 nM; in test [4] it was 81 nM.
On to `CC(C)(C)OC(=O)[C@@H]1CCCN1C#N`, for which half-maximal inhibition in test [3] (IC50) was put at 60 nM.
As for `C[C@@H](CC1CCCCC1)OC(=O)C1CCN1C#N` (stereo not given in full), the half-inhibitory concentration (IC50) in test [1] came to 40 nM; in test [2], 2.4 nM; in test [3], 0.048 nM; in test [4] it was 0.71 nM.
For `CC(C)(C)OC(=O)N[C@@H]1CCN(C#N)C1`, the IC50 in test [3] stood at 200 nM.
In turn, `CC(C)(C)OC(=O)N[C@H]1CCN(C#N)C1` had an IC50 in test [3] of 81 nM.
The same measure, in the same setting: next, `CC(C)(C)OC(=O)N1CCCN1C#N`: 380 nM.
On the same count and under the same terms, next, `CCCC[C@H](C=O)NC(=O)OC(C)(C)C`: 51 nM.
On to `CC[C@@H](CC1CCCCC1)OC(=O)NC1CCN(C#N)C1` (stereo not given in full), for which 8.9 nM corresponded to half-maximal inhibition in test [3] (IC50).
The same measure, in the same setting: next, `CN(C(=O)[C@H]1CCCN1C#N)C(C)(C)C`: above 13000 nM; `CC(C)(C)OC(=O)[C@@H]1CCCCN1C#N`: above 13000 nM; `N#CN1CCCC1` [CYANO-PYRROLIDINE]: 2100 nM.
